Measurements: US20250339569A1, “CARBONIC ANHYDRASE IX LIGANDS” (priority 2021, published 2025)
Starred links: 1 amine or outer side, 2 acyl side, 3 side chain; linkers in the order of their positions; H or OH if unused. Positions of bridges follow the written chain, without caps; N, C: chain ends. Non-standard residues stand in square brackets, D forms with d. Residues, ends and D or L forms follow the SMILES beside them. *: point of attachment. NH(CH2)3NH(O2Oc(DOTA)) = O=C(O)CN1CCN(CC(=O)O)CCN(CC(=O)NCCOCCOCC(=O)NCCCN*)CCN(CC(=O)O)CC1; DOTA = O=C(O)CN1CCN(CC(=O)O)CCN(CC(=O)*)CCN(CC(=O)O)CC1; 1Nal = N[C@@H](Cc1cccc2ccccc12)C(=O)O; mXylylene = c1cc(C[*:1])cc(C[*:2])c1; Bta = N[C@@H](Cc1csc2ccccc12)C(=O)O; Trx = NC[C@H]1CC[C@H](C(=O)O)CC1; tBuAla = CC(C)(C)C[C@H](N)C(=O)O; Pen = CC(C)(S)[C@H](N)C(=O)O; 3Amb = NCc1cccc(C(=O)O)c1; 4Amb = NCc1ccc(C(=O)O)cc1; AEEA = NCCOCCOCC(=O)O; Sar = CNCC(=O)O

target: T1, CAIX-expressing human HT-29 colorectal cancer cells (Homo sapiens, UniProt Q16790); assay: FACS binding assay (IC50 determination, competition with tracer 3BP-2776 or 3BP-4149); conditions: FACS competition on HT-29 cells, Tracer ID 3BP-2776 (10 nM, biotin-labeled), 4° C., 1 hour; read-out: pIC50 category (activity) (converted)
T1 construct: CAIX-expressing human HT-29 colorectal cancer cells; host or cells: HT-29 human colorectal cancer cells
Description: In order to determine binding of compounds according to the present invention to CAIX-expressing cells, a FACS binding assay was established.
CAIX-expressing human HT-29 colorectal cancer cells (DSMZ, RRID: CVCL_0320) were cultured in McCoys's 5A modified medium (Biochrom, #F1015) including 10% fetal calf serum (FCS), 2 mM L-glutamine, 100 U/ml penicillin and 100 μg/mL streptomycin. Cells were detached with Accutase (Biolegend, #423201) and washed in FACS buffer (PBS including 1% FCS). Cells were diluted in FACS buffer to a final concentration of 500.000 cells per ml. 200 μL of the cell suspension were transferred to a u-shaped non-binding 96-well plate (Greiner) and cells were washed in ice-cold FACS buffer.
When biotinylated compounds were used an additional incubation step with 1 μg/mL APC-Streptavidin (Miltenyi; #130-106-791) in 50 μL FACS buffer for 30 minutes on ice was performed.
Cells were washed twice with ice-cold FACS buffer and analyzed in an Attune NxT flow cytometer (Thermo Fisher). Median fluorescence intensities (MFI) of the APC/Cy5-channel were calculated by Attune NxT software. MFI values were plotted against peptide concentration and four parameter logistic (4PL) curve fitting and EC50/pEC50 or IC50/pIC50 calculations were performed using ActivityBase software.

Row | SMILES | IC50
1 | CC(C)C[C@@H]1NC(=O)[C@H](Cc2c[nH]c3ccccc23)NC(=O)[C@H](CC(=O)O)NC(=O)[C@H]2CCCN2C(=O)[C@H](CCC(=O)O)NC(=O)[C@@H](NC(=O)[C@H](Cc2ccc(O)cc2)NC(=O)[C@@H](NC(=O)[C@H]2CC[C@H](CNC(=O)CN3CCN(CC(=O)O)CCN(CC(=O)O)CCN(CC(=O)O)CC3)CC2)C(C)C)CSCc2cccc(c2)CSC[C@@H](C(N)=O)NC(=O)[C@H](C)NC(=O)[C@H](Cc2c[nH]c3ccccc23)NC(=O)[C@H]([C@@H](C)O)NC1=O [3BP-3430] ({DOTA-Trx}-VYCE[dP]DWLTWAC-NH2; linker 3-12 via mXylylene) | < 10 nM
2 | CC(C)[C@H](NC(=O)[C@H]1CC[C@H](CNC(=O)CN2CCN(CC(=O)O)CCN(CC(=O)O)CCN(CC(=O)O)CC2)CC1)C(=O)N[C@@H](Cc1ccc(O)cc1)C(=O)N[C@H]1CSCc2cccc(c2)CSC[C@@H](C(N)=O)NC(=O)[C@H](C)NC(=O)[C@H](Cc2c[nH]c3ccccc23)NC(=O)[C@H]([C@@H](C)O)NC(=O)[C@H](CC(C)(C)C)NC(=O)[C@H](Cc2c[nH]c3ccccc23)NC(=O)[C@H](CC(=O)O)NC(=O)[C@H]2CCCN2C(=O)[C@H](CCC(=O)O)NC1=O [3BP-3431] ({DOTA-Trx}-VYCE[dP]DW[tBuAla]TWAC-NH2; linker 3-12 via mXylylene) | < 10 nM
3 | CC(=O)N[C@H](C(=O)N[C@@H](Cc1ccc(O)cc1)C(=O)N[C@H]1CSCc2cccc(c2)CSC[C@@H](C(=O)NCCOCCOCC(=O)N[C@@H](CCCCNC(=O)CN2CCN(CC(=O)O)CCN(CC(=O)O)CCN(CC(=O)O)CC2)C(N)=O)NC(=O)[C@H](C)NC(=O)[C@H](Cc2c[nH]c3ccccc23)NC(=O)[C@H]([C@@H](C)O)NC(=O)[C@H](CC(C)C)NC(=O)[C@H](Cc2c[nH]c3ccccc23)NC(=O)[C@H](CC(=O)O)NC(=O)[C@H]2CCCN2C(=O)[C@H](CCC(=O)O)NC1=O)C(C)C [3BP-3474, Ac-Val-Tyr-[Cys(3MeBn)-Glu-pro-Asp-Trp-Leu-Thr-Trp-Ala-Cys]-O2Oc-Lys(DOTA)-NH2] (Ac-VYCE[dP]DWLTWAC[AEEA]K(DOTA)-NH2; linker 3-12 via mXylylene) | < 10 nM
4 | CC(=O)N[C@H](C(=O)N[C@@H](Cc1ccc(O)cc1)C(=O)N[C@H]1CSCc2cccc(c2)CSC[C@@H](C(=O)NCc2ccc(C(=O)N[C@@H](CCCCNC(=O)CN3CCN(CC(=O)O)CCN(CC(=O)O)CCN(CC(=O)O)CC3)C(N)=O)cc2)NC(=O)[C@H](C)NC(=O)[C@H](Cc2c[nH]c3ccccc23)NC(=O)[C@H]([C@@H](C)O)NC(=O)[C@H](CC(C)C)NC(=O)[C@H](Cc2c[nH]c3ccccc23)NC(=O)[C@H](CC(=O)O)NC(=O)[C@H]2CCCN2C(=O)[C@H](CCC(=O)O)NC1=O)C(C)C [3BP-3477] (Ac-VYCE[dP]DWLTWAC[4Amb]K(DOTA)-NH2; linker 3-12 via mXylylene) | < 10 nM
5 | CC(=O)N[C@H](C(=O)N[C@@H](Cc1ccc(O)cc1)C(=O)N[C@H]1CSCc2cccc(c2)CSC[C@@H](C(N)=O)NC(=O)[C@H](CCC(=O)NCCCNC(=O)COCCOCCNC(=O)CN2CCN(CC(=O)O)CCN(CC(=O)O)CCN(CC(=O)O)CC2)NC(=O)[C@H](Cc2c[nH]c3ccccc23)NC(=O)[C@H]([C@@H](C)O)NC(=O)[C@H](CC(C)C)NC(=O)[C@H](Cc2c[nH]c3ccccc23)NC(=O)[C@H](CC(=O)O)NC(=O)[C@H]2CCCN2C(=O)[C@H](CCC(=O)O)NC1=O)C(C)C [3BP-3479] (Ac-VYCE[dP]DWLTWE(NH(CH2)3NH(O2Oc(DOTA)))C-NH2; linker 3-12 via mXylylene) | < 10 nM

Other lines, results leading:

Row | IC50 | SMILES
6 | < 10 nM | CC(=O)N[C@H](C(=O)N[C@@H](Cc1ccc(O)cc1)C(=O)N[C@H]1CSCc2cccc(c2)CSC[C@@H](C(N)=O)NC(=O)[C@H](CCC(N)=O)NC(=O)[C@H](Cc2c[nH]c3ccccc23)NC(=O)[C@H]([C@@H](C)O)NC(=O)[C@H](CC(C)C)NC(=O)[C@H](Cc2cccc3ccccc23)NC(=O)[C@H](CC(=O)O)NC(=O)CN(C)C(=O)[C@H](CCC(=O)O)NC1=O)C(C)C [3BP-3314] (Ac-VYCE[Sar]D[1Nal]LTWQC-NH2; linker 3-12 via mXylylene)
7 | 100 to 794 nM | CC(=O)N[C@H](C(=O)N[C@@H](Cc1ccc(O)cc1)C(=O)N[C@H]1CSCc2cccc(c2)CSC[C@@H](C(N)=O)NC(=O)[C@H](CCC(N)=O)NC(=O)[C@H](Cc2csc3ccccc23)NC(=O)[C@H]([C@@H](C)O)NC(=O)[C@H](CC(C)C)NC(=O)[C@H](Cc2c[nH]c3ccccc23)NC(=O)[C@H](CC(=O)O)NC(=O)CN(C)C(=O)[C@H](CCC(=O)O)NC1=O)C(C)C [3BP-3315] (Ac-VYCE[Sar]DWLT[Bta]QC-NH2; linker 3-12 via mXylylene)
8 | 100 to 794 nM | CC(=O)N[C@H]1CSCc2cccc(c2)CSC[C@@H](C(N)=O)NC(=O)[C@H](CCC(N)=O)NC(=O)[C@H](Cc2c[nH]c3ccccc23)NC(=O)[C@H]([C@@H](C)O)NC(=O)[C@H](CC(C)C)NC(=O)[C@H](Cc2c[nH]c3ccccc23)NC(=O)[C@H](CC(=O)O)NC(=O)CN(C)C(=O)[C@H](CCC(=O)O)NC1=O [3BP-3325] (Ac-CE[Sar]DWLTWQC-NH2; linker 1-10 via mXylylene)
9 | < 10 nM | CC(C)C[C@@H]1NC(=O)[C@H](Cc2c[nH]c3ccccc23)NC(=O)[C@H](CC(=O)O)NC(=O)[C@H]2CCCN2C(=O)[C@H](CCC(=O)O)NC(=O)[C@@H](NC(=O)[C@H](Cc2ccc(O)cc2)NC(=O)[C@@H](NC(=O)c2cccc(CNC(=O)CN3CCN(CC(=O)O)CCN(CC(=O)O)CCN(CC(=O)O)CC3)c2)C(C)C)CSCc2cccc(c2)CSC[C@@H](C(N)=O)NC(=O)[C@H](C)NC(=O)[C@H](Cc2c[nH]c3ccccc23)NC(=O)[C@H]([C@@H](C)O)NC1=O [3BP-3429] ({DOTA-3Amb}-VYCE[dP]DWLTWAC-NH2; linker 3-12 via mXylylene)
10 | < 10 nM | CC(=O)N[C@H](C(=O)N[C@@H](Cc1ccc(O)cc1)C(=O)N[C@H]1CSCc2cccc(c2)CSC[C@@H](C(N)=O)NC(=O)[C@H](C)NC(=O)[C@H](Cc2c[nH]c3ccccc23)NC(=O)[C@H]([C@@H](C)O)NC(=O)[C@H](CC(C)(C)C)NC(=O)[C@H](Cc2c[nH]c3ccccc23)NC(=O)[C@H](CC(=O)O)NC(=O)[C@H]2CCCN2C(=O)[C@H](CCC(=O)O)NC1=O)C(C)C [3BP-3490] (Ac-VYCE[dP]DW[tBuAla]TWAC-NH2; linker 3-12 via mXylylene)
11 | < 10 nM | CC(=O)N[C@H](C(=O)N[C@@H](Cc1ccc(O)cc1)C(=O)N[C@H]1CSCc2cccc(c2)CSC(C)(C)[C@@H](C(N)=O)NC(=O)[C@H](C)NC(=O)[C@H](Cc2c[nH]c3ccccc23)NC(=O)[C@H]([C@@H](C)O)NC(=O)[C@H](CC(C)C)NC(=O)[C@H](Cc2c[nH]c3ccccc23)NC(=O)[C@H](CC(=O)O)NC(=O)[C@H]2CCCN2C(=O)[C@H](CCC(=O)O)NC1=O)C(C)C [3BP-3492] (Ac-VYCE[dP]DWLTWA[Pen]-NH2; linker 3-12 via mXylylene)
12 | < 10 nM | CC(=O)N[C@H](C(=O)N[C@@H](Cc1ccc(O)cc1)C(=O)N[C@H]1CSCc2cccc(c2)CSC(C)(C)[C@@H](C(N)=O)NC(=O)[C@H](C)NC(=O)[C@H](Cc2c[nH]c3ccccc23)NC(=O)[C@H]([C@@H](C)O)NC(=O)[C@H](CC(C)(C)C)NC(=O)[C@H](Cc2c[nH]c3ccccc23)NC(=O)[C@H](CC(=O)O)NC(=O)[C@H]2CCCN2C(=O)[C@H](CCC(=O)O)NC1=O)C(C)C [3BP-3493] (Ac-VYCE[dP]DW[tBuAla]TWA[Pen]-NH2; linker 3-12 via mXylylene)
